Experimental data from patent US8349835B2, “Aromatic ring fused triazine derivatives and uses thereof” (Shenyang Pharmaceutical University, priority 2008, dated 2013).

Assays:
[1] = test system: Microvascular Endothelial Cells (MVEC); assay: MTT growth inhibition of MVEC; format: cell-based; settings: Endothelial cell, 96 h, 4 days culture with drug, read-out: IG50 on inhibiting growth of MVEC
Procedure, shortened: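 MVEC were seeded at 2×10^4 cells/mL in DMEM with 10% FBS and allowed to attach for 24 h, then treated with compound at final concentrations of 5–80 μmol/L (triplicates) for 4 days at 37 °C. MTT (4 h) absorbance at 570 nm gave % growth inhibition relative to untreated cells.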

[2] = test system: Human breast carcinoma cells (T47D); assay: MTT growth inhibition of T47D; format: cell-based; settings: 96 h, 4 days, read-out: IG50 T47D
Method: (§1) In Vitro Anti-Tumor Activity Test
(§2) Put cell suspension into centrifugal tubes with a pipette under sterile conditions, then the cell suspension was centrifuged for 3 minutes at 1300 rpm. Discarded the supernatant lightly and added fresh culture medium. Mixed the cells by pipetting, then transferred the cells into culture flasks, and put them into the CO2 incubator. Changed the culture medium once after 24 hours.
(§3) Human prostate cancer cells (DU145, PC-3) were cultured in a medium containing RPMI1640 basic medium supplemented with 10% heat-inactivated FBS, 100 IU/mL penicillin, 100 μg/mL streptomycin and 1 mmol/L L-glutamine. Human breast carcinoma cells (T47D, MDA-MB231) were cultured in a medium containing RPM11640 basic medium supplemented with 10% heat-inactivated FBS, 5 μg/mL insulin, 100 IU/mL penicillin, 100 μg/mL streptomycin and 1 mmol/L L-glutamine. Human breast carcinoma cells (MCF-7) were cultured in a medium containing DMEM basic medium supplemented with 10% heat-inactivated FBS, 5 μg/mL insulin, 100 IU/mL penicillin, 100 μg/mL streptomycin and […]. Murine Lewis lung cancer cells (LL/2), murine melanoma cells (B16FD) and Microvascular Endothelial Cells (MVEC) were cultured in a medium containing DMEM basic medium supplemented with 10% heat-inactivated FBS, 4.5 g/L glucose, 1.5 g/L NaHCO3, 100 IU/mL penicillin, 100 μg/mL streptomycin and 4 mmol/L L-glutamine. All these cell lines were incubated at 37° C. biochemical incubator with 5% CO2 saturated humidity.
(§4) After resuscitation, the cells were passed for 2-3 generations till they became stable, then they were used for the experiments. Each passage was based on the standard that all cells were spread over the bottoms of culture flasks.
(§5) Cells were digested off from the bottoms of culture flasks with trypsin (0.25%). The cell dissociation buffer was transferred into centrifuge tubes, added medium to stop the digestion, and centrifuged for 3 minutes at 1300 rpm. Discarded the supernatant lightly and added fresh culture medium (5 mL). Mixed the cells by pipetting, then added 10 μL of the cell suspension into the cell counting plate, and adjusted the cell concentration to 2×10^4 cells/mL. Added 100 μL of the cell suspension to all wells on the 96 well plates, except A1 well as the blank control. Put the plates into the biochemical incubator for 24 hours and to make sure the cells grew along the walls. […]
(§6) Added 50 μL MTT liquids (2 mg/mL) into each well, put the culture plates into the biochemical incubator for 4 h, discarded MTT liquids (TCC), added 200 μL DMSO, then oscillated for 10 minutes on the magnetic oscillator to make sure that the survived cells and the reaction product of MTT were fully dissolved. Detected and recorded the absorbance (OD) values of each well at the wavelength of 570 nm using the microplate reader. […] The cell growth inhibition rates under each drug concentration were calculated by the following formula. […] Inhibition rate of growth(%)=(1−The absorbance(OD)of cells with tested drugs/The absorbance(OD)of the blank control group)×100%
(§7) The absorbance (OD) of cells with tested drugs: OD value is measured with the test drugs.
(§8) The absorbance (OD) of the blank control group: OD value is measured without the test drugs. […]

[3] = test system: Human prostate cancer cells (PC-3); assay: MTT growth inhibition of PC-3; format: cell-based; settings: 96 h, PC-3, MTT, 4 days, read-out: IG50 PC-3
Method: as §1, §2, §3, §4, §5, §6, §7, §8

[4] = test system: Human breast carcinoma cells (MDA-MB231); assay: MTT growth inhibition of MDA-MB231; format: cell-based; settings: MDA-MB-231, 96 h, 4 days, read-out: IG50 MDA-MB231
Method: as §1, §2, §3, §4
(§9) Cells were digested off from the bottoms of culture flasks with trypsin (0.25%). The cell dissociation buffer was transferred into centrifuge tubes, added medium to stop the digestion, and centrifuged for 3 minutes at 1300 rpm. […]
as §6, §7, §8

[5] = in vivo; settings: both sexes, mouse, intraperitoneal, Kunming mice, peritoneal injection, single administration, observed for one week
Method: 9) Acute Toxicity Testing
Animals: healthy mice of Kunming species, female and male each account for 50%, and the weights range from 18 to 22 g. All the mice were obtained from the laboratory animal center of Shenyang Pharmaceutical University. Certificate number: Liao Shi He Zi No. 033
Medicine preparation: drugs were added in 0.2% Polysorbate 80 (Tween-80) to make suspension. The dosage of tested compounds was indicated with mg/kg.
Test period and Observed index: observed for one week after the administration. The toxic reaction information of the mice was recorded everyday during the observation period. The death of mice was regarded as the principal index. Half lethal doses (LD50, mg/kg) of the compounds one week after the drug administration were calculated according to the method of weighted regression.

[6] = test system: Murine Lewis lung cancer cells (LL/2); assay: MTT growth inhibition of LL/2; format: cell-based; settings: Mus musculus, Lewis lung carcinoma, 96 h; LL/2, MTT, 4 days; read-out: IG50 LL/2
Method: as §1, §2, §3, §4, §5, §6, §7, §8

[7] = test system: Human prostate cancer cells (DU145); assay: MTT growth inhibition of DU145; format: cell-based; settings: DU-145, 96 h, 4 days, read-out: IG50 DU145
Method: as §1, §2, §3, §4, §5, §6, §7, §8

[8] = test system: Human breast carcinoma cells (MCF-7); assay: MTT growth inhibition of MCF-7; format: cell-based; settings: MCF7, 96 h, MCF-7, MTT, 4 days, read-out: IG50 MCF-7
Method: as §1, §2, §3, §4, §9, §6, §7, §8

[9] = test system: Human Umbilical Vein Endothelial Cells (HUVEC); assay: MTT growth inhibition of HUVEC; format: cell-based; settings: 96 h, 4 days, read-out: IG50 HUVEC
Method: as §1, §2, §4
Cells were digested off from the bottoms of culture flasks with trypsin (0.25%). The cell dissociation buffer was transferred into centrifuge tubes, added medium to stop the digestion, and centrifuged for 3 minutes at 1300 rpm. Discarded the supernatant lightly and added fresh culture medium (5 mL). Mixed the cells by pipetting, then added 10 μL of the cell suspension into the cell counting plate, and adjusted the cell concentration to 2×10^4 cells/mL. Added 100 μL of the cell suspension to all wells on the 96 well plates, except A1 well as the blank control. Put the plates into the biochemical incubator for 24 hours and to make sure the cells grew along the walls.
The drugs were dissolved in 80 mmol/L DMSO first, and then diluted the drugs with ethanol to 8 mmol/L. The solution was further diluted with the culture medium to different concentrations as 160 μmol/L, 120 μmol/L, 80 μmol/L, 40 μmol/L, 20 μmol/L and 10 μmol/L. Added 100 μL of the drug solution to each well on the 96 well plates. Therefore, the final concentrations of the drugs that were added to the cells were 80 μmol/L, 40 μmol/L, 20 μmol/L, 10 μmol/L and 5 μmol/L, and each concentration were repeated in three parallel wells. Put the culture plates into the biochemical incubator to culture continuously for 4 days.
Added 50 μL MTT liquids (2 mg/mL) into each well, put the culture plates into the biochemical incubator for 4 h, discarded MTT liquids (TCC), added 200 μL DMSO, then oscillated for 10 minutes on the magnetic oscillator to make sure that the survived cells and the reaction product of MTT were fully dissolved. Detected and recorded the absorbance (OD) values of each well at the wavelength of 570 nm using the microplate reader. The OD values of cells without tested drugs were used as control. The cell growth inhibition rates under each drug concentration were calculated by the following formula. […] Inhibition rate of growth(%)=(1−The absorbance(OD)of cells with tested drugs/The absorbance(OD)of the blank control group)×100%
as §7
The absorbance (OD) of the blank control group: OD value is measured without the test drugs.
8) The Growth Inhibition Effect of Compounds on Human Breast Carcinoma Cells (T47D, MDA-MB231, MCF-7), Human Prostate Cancer (DUI45, PC-3), Murine Lewis Lung Cancer Cells (LL/2), Murine Melanoma Cells(B16F0) and Human Umbilical Vein Endothelial Cells (HUVEC) (Table 2).

[10] = test system: murine melanoma cells (B16F0); assay: MTT growth inhibition of B16F0; format: cell-based; settings: Mus musculus, 96 h, 4 days, read-out: IG50 B16F0
Method: as §1, §2, §3, §4, §5, §6, §7, §8

[11] = target: VEGFR-2 (Homo sapiens, UniProt P35968); assay: VEGFR-2 inhibition rate test (kinase assay kit, colorimetric ELISA); settings: concentration not given
[12] = test system: Rat aortic ring; assay: Rat Aortic Ring Assay; format: cell-based; settings: observed on the sixth day
Procedure, shortened: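 1 mm abdominal aortic rings from 6-week-old SD animals embedded in Matrigel, cultured in DMEM/10% FBS with compound at various concentrations (≥3 wells), medium and compound renewed day 3. Microvessel area imaged on day 6 (×100, 3 random rings); inhibition rate scored: ⋆<30-60%, ⋆⋆60-90%, ⋆⋆⋆>90%.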

[13] = test system: chorioallantoic membrane vessels; assay: Activity test by chick chorioallantoic membrane method; format: in vivo; settings: 5 uL medicine on cellulose membrane, chick embryo, 2 days
Method: After the shell membrane became wet, tore it open with ophthalmological tweezers so to expose the chorioallantoic membrane. • 6) Added 5 uL of selected medicine to a 0.5×0.5 cm cellulose membrane sterilized by high pressure, then set the membrane on the part of the chorioallantoic membrane with fewer vessels • 7) Closed the window, and put the embryos back into the hatch box to hatch for 2 days. • 8) Opened the transparent tape, and then opened the mixed cellulose membrane lightly with a tweezers. Measured the avascular area and took photographs.

VEGFR-2, sequence (P35968 20-1356): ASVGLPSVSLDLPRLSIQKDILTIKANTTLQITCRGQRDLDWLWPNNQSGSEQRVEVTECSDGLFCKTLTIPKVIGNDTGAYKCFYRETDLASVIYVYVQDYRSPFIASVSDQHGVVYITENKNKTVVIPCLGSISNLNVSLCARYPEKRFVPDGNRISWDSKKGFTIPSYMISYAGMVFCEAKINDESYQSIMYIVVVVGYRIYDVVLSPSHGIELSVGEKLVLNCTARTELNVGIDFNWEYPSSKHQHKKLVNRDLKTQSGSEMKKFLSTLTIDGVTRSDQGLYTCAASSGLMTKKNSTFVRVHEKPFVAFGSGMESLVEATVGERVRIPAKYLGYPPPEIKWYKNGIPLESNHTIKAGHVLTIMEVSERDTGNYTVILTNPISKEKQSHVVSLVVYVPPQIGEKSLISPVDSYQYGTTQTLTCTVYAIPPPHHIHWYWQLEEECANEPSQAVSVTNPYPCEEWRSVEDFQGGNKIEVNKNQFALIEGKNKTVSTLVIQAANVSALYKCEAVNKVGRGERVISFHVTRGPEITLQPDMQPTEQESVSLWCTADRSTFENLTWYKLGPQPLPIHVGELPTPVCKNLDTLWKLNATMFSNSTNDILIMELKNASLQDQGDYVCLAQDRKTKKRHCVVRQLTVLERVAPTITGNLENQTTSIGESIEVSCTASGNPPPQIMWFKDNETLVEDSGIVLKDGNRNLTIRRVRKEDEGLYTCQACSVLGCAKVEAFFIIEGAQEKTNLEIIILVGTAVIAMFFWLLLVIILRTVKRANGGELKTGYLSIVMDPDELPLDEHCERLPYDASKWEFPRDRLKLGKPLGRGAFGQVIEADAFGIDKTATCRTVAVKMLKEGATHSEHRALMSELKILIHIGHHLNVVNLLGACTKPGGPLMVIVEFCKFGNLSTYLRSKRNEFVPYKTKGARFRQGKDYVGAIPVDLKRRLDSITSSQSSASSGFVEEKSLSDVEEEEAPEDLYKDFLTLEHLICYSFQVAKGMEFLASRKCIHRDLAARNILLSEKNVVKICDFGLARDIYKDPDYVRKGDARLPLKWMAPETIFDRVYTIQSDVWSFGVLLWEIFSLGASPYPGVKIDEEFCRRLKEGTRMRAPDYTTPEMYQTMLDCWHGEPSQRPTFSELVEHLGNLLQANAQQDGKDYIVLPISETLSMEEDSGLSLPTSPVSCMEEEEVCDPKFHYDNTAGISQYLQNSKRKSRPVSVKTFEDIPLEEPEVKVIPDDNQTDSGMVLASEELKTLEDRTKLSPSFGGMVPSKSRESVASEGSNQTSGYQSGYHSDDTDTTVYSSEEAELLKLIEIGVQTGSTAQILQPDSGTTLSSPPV

| Structure (SMILES) | IC50 [1] | IC50 [2] | IC50 [3] | IC50 [4] | LD50 at 1 week [5] | IC50 [6] | IC50 [7] | IC50 [8] | IC50 [9] | IC50 [10] | Kinase inhibition rate (VEGFR-2) [11] | Rat Aortic Ring Assay (10 ug/ml), result in words [12] | The inhibitory effect on the growth of chorioallantoic membrane vessels [13] |
| --- | --- | --- | --- | --- | --- | --- | --- | --- | --- | --- | --- | --- | --- |
| CCCCOc1cc2nnnc(Nc3ccc(C)cc3)c2cc1OC [Example 27, 6-methoxy-7-n-butoxy-4-(4-methylanilino)-benzo[d][1,2,3]triazine] | 9.09 µM | 18.4 µM | 15.8 µM | 19.6 µM | 733 mg/kg | 15.7 µM | 15.1 µM | 6.17 µM | 5.06 µM | 22.2 µM |  |  |  |
| FC(F)(F)Oc1cccc(Nc2nnnc3ccc(Cl)nc23)c1 [Example 86, 6-chloro-4-(3-trifluoromethoxyanilino)pyrido[3,2-d][1,2,3]triazine] | 4.28 µM | 6.42 µM | 5.99 µM | 4.71 µM | 292 mg/kg | 4.13 µM | 4.14 µM | 4.55 µM | 2.21 µM | 4.67 µM | 29.93 | Almost complete inhibition (10 μg/mL), vascular ring was dead |  |
| COc1cc2c(Nc3ccc(F)c(Cl)c3)nnnc2cc1OCCCCl [Example 72, 6-methoxy-7-chloropropoxy-4-(3-chloro-4-fluoroanilino)-benzo[d][1,2,3]triazine] | 7.98 µM | 5.04 µM | 6.91 µM |  |  | 3.79 µM | 4.96 µM |  | 3.73 µM | 5.19 µM | −14.70 |  |  |
| FC(F)(F)c1cccc(Nc2nnnc3ccc(Cl)nc23)c1 [Example 84, 6-chloro-4-(3-trifluoromethylanilino)pyrido[3,2-d][1,2,3]triazine] | 5.25 µM | 5.87 µM | 6.9 µM | 5.1 µM | 424 mg/kg | 4.79 µM | 5.9 µM | 3.95 µM | 3.02 µM | 4.28 µM |  | Almost complete inhibition (10 μg/mL), vascular ring was dead |  |
| Clc1ccc(Nc2nnc(Cc3ccncc3)c3ccccc23)cc1 [PTK787, Vatalanib succinate, reference compound] | 38.1 µM | 36.3 µM | 63.7 µM | 24.2 µM |  | 35 µM | 41.3 µM | 12.3 µM | > 40 µM | 21.4 µM |  |  | There is no vascular growth. |
